Results taken from patent US4341768A, “Antibiotic compounds” (priority 1981, dated 1982).
Bridge positions count the residues as written; N and C are the ends. Square brackets hold non-standard residues; d marks the D form. Peptide text beside a SMILES is read from it. * marks the point of attachment. X1 = CCC(C)CCCCC(O)CC(=O)*; dDab = NCC[C@@H](N)C(=O)O; Dab = NCC[C@H](N)C(=O)O

Columns and labels:
Acute toxicity in mice = format: in vivo; settings: for LD50: mouse, in vivo
Protocol: The acute toxicities of Bu-2470 A and B1 were determined in mice by intravenous(iv) and subcutaneous (sc) routes. Colistin was tested comparatively as a reference compound.

SMILES	Acute toxicity relative to colistin (Acute toxicity in mice; iv route)	LD50 (Acute toxicity in mice; intravenous)	LD50 (Acute toxicity in mice; sc, subcutaneous)	Acute toxicity relative to colistin (Acute toxicity in mice; sc route)	Solubility in aqueous lower alcohols, aqueous dioxane, dimethylsulfoxide and dimethylformamide (Solubility; aqueous lower alcohols, aqueous dioxane, dimethylsulfoxide, dimethylformamide)	Solubility in lower alcohols (Solubility; lower alcohols)	Solubility in other organic solvents (Solubility; other organic solvents)	Solubility in water (Solubility; water over a wide pH range)
CC(C)C[C@@H]1NC(=O)[C@H](CCN)NC(=O)[C@H](CCN)NC(=O)[C@H](CC(C)C)NC(=O)[C@@H](Cc2ccccc2)NC(=O)[C@H](CCN)NC(=O)[C@@H](NC(=O)[C@H](N)CCN)CCNC1=O [Bu-2470A] (H-[dDab][Dab][Dab][dF]L[Dab][Dab]L; lactam 2-C)	less toxic than colistin	35 mg/kg	56 mg/kg	more toxic	readily soluble	slightly soluble	practically insoluble	readily soluble
CCC(C)CCCCC(O)CC(=O)N[C@H](CCN)C(=O)N[C@H]1CCNC(=O)[C@H](CC(C)C)NC(=O)[C@H](CCN)NC(=O)[C@H](CCN)NC(=O)[C@H](CC(C)C)NC(=O)[C@@H](Cc2ccccc2)NC(=O)[C@H](CCN)NC1=O (stereo partly drawn) [Bu-2470B1] (X1-[dDab][Dab][Dab][dF]L[Dab][Dab]L; lactam 2-C)	less toxic than colistin	35 mg/kg	280 mg/kg	less toxic than colistin	–	–	–	–
